Data taken from patent US20120184532A1 (priority 2009, published 2012).
“And” between values parts separate entries of the source, which are not always exact repeats. Equal values may be shown once. “Also recorded” adds a separate entry of the source. Where a name gives a salt, the structure may show the parent alone.

Columns and labels:
[1] = target: T1, Acetylcholinesterase (h), human recombinant (HEK-293 cells) (Homo sapiens, UniProt P22303); experiment: In vitro human acetylcholine esterase inhibition; type: biochemical; details: in contrast to galantamine
T1 construct: host or cells: HEK-293 cells

[2] = test system: human stomach circular smooth muscle; experiment: Ex vivo human stomach circular smooth muscle, electrical field stimulation; details: human stomach strips, EFS, 100 nM to 100 μM
[3] = test system: ferret; experiment: Emetic activity (retching and vomiting) in the ferret; details: for Time (min) to onset of: Retching / Time (min) to onset of: Vomiting / Total number of individual incidences of: Retching / Total number of individual incidences of: Vomiting: 2 hr. observation; for animals dosed that retched / animals dosed that vomited: 20 mg (free base)/kg or similar molar dose, oral
[4] = test system: rabbit stomach circular smooth muscle; experiment: Ex vivo rabbit stomach circular smooth muscle, electrical field stimulation; details: rabbit stomach strips, EFS, 100 nM to 100 μM
[5] = test system: Sprague Dawley rat; experiment: PICA behavior (kaolin consumption) as surrogate for emesis in the rat; type: in vivo; details: for rat kaolin consumption (g) over 24 h post-dose: single subcutaneous dose 3.5 mg base/kg
Protocol: This is a well established model for this purpose in the rat (Takeda N et al (1993) 45 817-21).
Once determined, a comparison was made of the effects of these doses on kaolin consumption over a 0-96 hour period in 24 h increments.
In detail groups of 10 male Sprague Dawley rats were habituated to kaolin for 3 days, then singly housed in grid-bottomed cages and habituated for a further 2 days prior to dosing. On the day of drug administration, the animals were food-deprived for 1 h prior to dosing. […] Access to a weighed quantity of food and kaolin was then restored. Food and kaolin was weighed 24, 48, 72 and 96 h after dosing.

[6] = test system: rat; experiment: Comparative acute toxicity (behavior) of sc and po galantamine in the rat; type: in vivo; details: individual rats
[7] = 40 mg/kg as base p.o., individual animals
[8] = 20 mg/kg p.o., individual animals, listed as Galantamine HBr, hydrobromide, 20 mg/kg
[9] = 20 mg/kg p.o., individual animals, listed as Galantamine valine ester tartrate, 20 mg/kg

T1 sequence (P22303 32-614): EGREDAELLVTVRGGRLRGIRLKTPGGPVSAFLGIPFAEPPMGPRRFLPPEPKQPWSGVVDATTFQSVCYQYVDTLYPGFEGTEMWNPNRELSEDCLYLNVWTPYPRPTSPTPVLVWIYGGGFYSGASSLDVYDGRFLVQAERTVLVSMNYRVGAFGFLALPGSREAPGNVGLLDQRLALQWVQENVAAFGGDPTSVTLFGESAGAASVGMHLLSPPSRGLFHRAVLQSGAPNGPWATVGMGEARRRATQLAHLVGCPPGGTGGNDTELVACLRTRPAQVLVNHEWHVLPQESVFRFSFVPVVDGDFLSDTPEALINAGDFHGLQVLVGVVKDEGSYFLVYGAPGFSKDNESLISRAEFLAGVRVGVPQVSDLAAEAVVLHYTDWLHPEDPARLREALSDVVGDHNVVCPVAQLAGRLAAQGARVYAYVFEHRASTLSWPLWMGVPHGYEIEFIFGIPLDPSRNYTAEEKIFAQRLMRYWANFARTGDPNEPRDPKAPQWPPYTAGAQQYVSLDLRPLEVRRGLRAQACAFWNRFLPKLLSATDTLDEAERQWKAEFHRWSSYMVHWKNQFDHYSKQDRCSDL

`COc1ccc2c3c1O[C@H]1C[C@@H](OC(=O)CCCC(=O)Nc4ccc(C(=O)O)cc4)C=C[C@@]31CCN(C)C2` [Galantamine [glutaryl-PABA] ester] was tested, and the “inhibitory actions toward human acetylcholine esterase (in words)” value [1] was “significantly less inhibitory actions”.
With `COc1ccc2c3c1O[C@H]1C[C@@H](OC(=O)CCC(=O)N[C@H](C(=O)O)C(C)C)C=C[C@@]31CCN(C)C2` [Galantamine succinyl valine ester] the “stimulation of smooth muscle contractions (change in force production)” value (shortened to “stimulation … (change in force production)”) [2] was “complete absence of any such effect”, the “Time (min) to onset of: Retching” value ([3]; 40 mg/kg as base p.o., Mean) was over 120 min and the “Time (min) to onset of: Vomiting” value ([3]; 40 mg/kg as base p.o., Mean) was over 120 min. The “Total number of individual incidences of: Retching” value (shortened to “Total number … Retching”) ([3]; 40 mg/kg as base p.o., Mean) was 0, the “Total number of individual incidences of: Vomiting” value (shortened to “Total number … Vomiting”) ([3]; 40 mg/kg as base p.o., Mean) was 0 and the “Time (min) to onset of: Retching” value [3, 7] was over 120 min. For the same compound, the “Time (min) to onset of: Vomiting” value [3, 7] was over 120 min, the “Total number … Retching” value [3, 7] was 0 and the “Total number … Vomiting” value [3, 7] was 0. The “retching or vomiting observed (in words)” value ([3]; oral 40 mg galantamine (free base equivs)/kg) was “no retching or vomiting at all”, the “stimulation … (change in force production)” value [4] was “complete absence of any such effect” and the “Cumulative mean ± SD kaolin consumption” value ([5]; 11.75 mg base/kg po (galantamine free base content), 24 h) was 0.14 ± 0.20 g. For the same compound, the “Cumulative mean ± SD kaolin consumption” value ([5]; 11.75 mg base/kg po (galantamine free base content), 48 h) was 0.29 ± 0.24 g, the “Cumulative mean ± SD kaolin consumption” value ([5]; 11.75 mg base/kg po (galantamine free base content), 72 h) was 0.48 ± 0.27 g and the “Cumulative mean ± SD kaolin consumption” value ([5]; 11.75 mg base/kg po (galantamine free base content), 96 h) was 0.57 ± 0.40 g. For the same compound, the “Cumulative mean ± SD kaolin consumption” value ([5]; 23.5 mg base/kg po (galantamine free base content), 24 h) was 0.31 ± 0.53 g, the “Cumulative mean ± SD kaolin consumption” value ([5]; 23.5 mg base/kg po (galantamine free base content), 48 h) was 0.61 ± 0.69 g and the “Cumulative mean ± SD kaolin consumption” value ([5]; 23.5 mg base/kg po (galantamine free base content), 72 h) was 0.95 ± 0.96 g. For the same compound, the “Cumulative mean ± SD kaolin consumption” value ([5]; 23.5 mg base/kg po (galantamine free base content), 96 h) was 1.25 ± 1.31 g, the “Cumulative mean ± SD kaolin consumption” value ([5]; 47 mg base/kg po (galantamine free base content), 24 h) was 0.15 ± 0.18 g and the “Cumulative mean ± SD kaolin consumption” value ([5]; 47 mg base/kg po (galantamine free base content), 48 h) was 0.40 ± 0.18 g. For the same compound, the “Cumulative mean ± SD kaolin consumption” value ([5]; 47 mg base/kg po (galantamine free base content), 72 h) was 0.63 ± 0.28 g, the “Cumulative mean ± SD kaolin consumption” value ([5]; 47 mg base/kg po (galantamine free base content), 96 h) was 0.91 ± 0.45 g and the “Cumulative mean ± SD kaolin consumption” value ([5]; 47 mg base/kg po (galantamine free base content), 96 h, listed as GSVE) was 0.91 ± 0.45 g. For the same compound, the “inhibitory actions toward human acetylcholine esterase (in words)” value [1] was “significantly less inhibitory actions”.
With `COc1ccc2c3c1O[C@H]1C[C@@H](O)C=C[C@@]31CCN(C)C2` [Galantamine, (4aS,6R,8aS)-4a,5,9,10,11,12-hexahydro-3-methoxy-11-methyl-6H-benzofuro[3a,3,2ef][2]benzazepin-6-ol hydrobromide] the “stimulation … (change in force production)” value [2] was “evidence of a dose response”, the rat behavior ([6]; 3.5 mg/kg sc, 2 min post dose, hydrobromide) was “Rat 1: purposeless chewing, mouth; also recorded: Rat 3: purposeless chewing, mouth” and the rat behavior ([6]; 3.5 mg/kg sc, 5 min post-dose, hydrobromide) was “Rat 3: As per 2 min; also recorded: Rat 1: purposeless chewing, mouth”. For the same compound, the rat behavior ([6]; 3.5 mg/kg sc, 10 min post-dose, hydrobromide) was “Rat 1: Tremors, flattened rostral body; also recorded: Rat 3: purposeless chewing, mouth”, the rat behavior ([6]; 3.5 mg/kg sc, 20 min post-dose, hydrobromide) was “Rat 1: Quiescent, flattened body posture,; also recorded: Rat 3: Some ambulation restored” and the rat behavior ([6]; 3.5 mg/kg sc, 30 min post-dose, hydrobromide) was “Rat 1: Quiescent, flattened body posture,; also recorded: Rat 3: Some ambulation restored”. The rat behavior ([6]; 3.5 mg/kg sc, 45 min post-dose) was “Rat 1: food consumption and more”, the rat behavior ([6]; 3.5 mg/kg sc, 1 h, hydrobromide) was “Rat 1: Normal; also recorded: Rat 3: Normal” and the rat behavior ([6]; 40 mg/kg po, 10 min post-dose, hydrobromide) was “Rat 6: Quiescent, purposeless; also recorded: Rat 7: Quiescent, purposeless chewing,”. The rat behavior ([6]; 40 mg/kg po, 20 min post-dose, hydrobromide) was “Ratc 6 as per 10 min + arching; also recorded: Rat 7: grooming + purposeless”, the rat behavior ([6]; 40 mg/kg po, 30 min post-dose) was “Rat 6: quiescent, purposeless chewing,” and the rat behavior ([6]; 40 mg/kg po, 45 min post-dose, hydrobromide) was “Rat 6: flattened body posture, chewing,; also recorded: Rat 7: grooming, sawdust consumption”. The rat behavior ([6]; 40 mg/kg po, 1 h, hydrobromide) was “Rat 6: flattened body posture, tremor; also recorded: Rat 7: Grooming, sawdust”, the rat behavior ([6]; 40 mg/kg po, 1.5 h, hydrobromide) was “Rat 7: quiet, falttened posture” and the rat behavior ([6]; 40 mg/kg po, 2 h, hydrobromide) was “Rat 6: much improved; also recorded: Rat 7: much improved”. For the same compound, the rat behavior ([6]; 40 mg/kg po, 3 h, hydrobromide) was “Rat 6: normal; also recorded: Rat 7: normal”, the “animals dosed that retched” value [3] was 55% and the “animals dosed that vomited” value [3] was 40%. For the same compound, the “Time (min) to onset of: Retching” value [3, 8] was 6 min (2×) and 33 min and 3 min and 5 min (3×) and >120 min (8×) and 41 min and 11 min and 10 min and 7 min (2×), the “Time (min) to onset of: Vomiting” value [3, 8] was 41 min and 33 min and 75 min and 5 min (2×) and >120 min (11×) and 37 min and 10 min and 13 min and 6 min and the “Total number … Retching” value [3, 8] was 22 and 21 and 29 and 18 and 0 (9×) and 31 and 3 (2×) and 6 and 2 and 5 and 13. The “Total number … Vomiting” value [3, 8] was 1 (6×) and 4 (2×) and 0 (11×) and 2, the “stimulation … (change in force production)” value [4] was “evidence of a dose response” and the “rat kaolin consumption (g) over 24 h post-dose” value ([5]; Mean) was 0.25 g. For the same compound, the “rat kaolin consumption (g) over 24 h post-dose” value ([5]; individual rats, hydrobromide) was 0.67 g and 0.36 g and 0.88 g and 0.08 g and 0.00 g (3×) and 0.21 g and 0.05 g.
For `COc1ccc2c3c1O[C@H]1C[C@@H](OC(=O)[C@@H](N)C(C)C)C=C[C@@]31CCN(C)C2` [Galantamine-(S)-valine ester, galantamine-(S)-valine ester tartrate], the “animals dosed that retched” value [3] was 45%, the “animals dosed that vomited” value [3] was 18% and the “Total number … Retching” value ([3]; 20 mg/kg p.o., Mean) was 3.9. For the same compound, the “Time (min) to onset of: Retching” value [3, 9] was >120 min (6×) and 35 min and 11 min and 9 min and 6 min, the “Time (min) to onset of: Vomiting” value [3, 9] was >120 min (9×) and 44 min and 9 min and the “Total number … Retching” value [3, 9] was 0 (6×) and 22 and 2 (2×) and 3 and 14. The “Total number … Vomiting” value [3, 9] was 0 (9×) and 1 and 3.
